Test results as given in patent publication US9284283B2, “Macrocyclic compounds for modulating IL-17” (ENSEMBLE THERAPEUTICS CORPORATION, priority 2012, dated 2016).

Experiments:
[1] = target: T1, biotinylated human IL-17 (binding to IL17R/Fc) (Homo sapiens, UniProt Q16552); experiment: IL-17 competition ELISA II (captured IL17R/Fc, biotinylated IL-17)
T1 construct: purchased R&D Systems 317-ILB (IL-17, biotinylated); 177-IR (IL17R/Fc)
T1 sequence (Q16552 20-155 limits assumed): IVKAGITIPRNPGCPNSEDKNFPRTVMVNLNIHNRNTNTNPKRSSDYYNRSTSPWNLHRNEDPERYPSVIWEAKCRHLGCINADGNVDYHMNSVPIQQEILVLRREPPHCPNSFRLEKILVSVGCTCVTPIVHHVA
Outline: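 Competition read-out: absorbance at 450 nm after streptavidin-HRP/TMB detection, fitted to a 4-parameter logistic model bounded by no-competitor and blank wells to give IC50. Compound was serially diluted 5-fold from 1 μM alongside 20 nM (stock) biotinylated IL-17 on IL17R/Fc (10 nM) captured via goat anti-human IgG, 30 min at room temperature.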

[2] = target: T2, recombinant human IL17a (binding to its receptor IL17R) (Homo sapiens, UniProt Q16552); experiment: IL-17 competition ELISA I (IL17a coated, IL17R/Fc binding)
T2 construct: purchased R&D Systems 317-ILB (IL17a); 177-IR (IL17R/Fc)
T2 sequence (Q16552 20-155 limits assumed): T1 sequence (Q16552 20-155 limits assumed)
Experimental: ELISA I: The ability of the compounds to block binding of IL17a to its receptor, IL17R, was analyzed in a competition ELISA format. High binding 96-well plates (Costar #9018) were coated with 20 nM of recombinant human IL17a (R&D Systems #317-ILB) in PBS (0.64 μg/mL), 100 μL/well, for 30 min at 37′C followed by 5 min at 4′C. Plates were then washed in PBST (PBS/0.05% Tween-20) on a plate washer, (Biotech EL-450) blocked with protein-free blocking buffer (Thermo Scientific #37573) in 250 μL/well for 30 min on shaker at room temperature, and then washed again. Compound dilutions prepared in PBST were added into the wells in duplicates followed by the addition of IL17R/Fc (R&D Systems #177-IR) at a final concentration of 12 nM. Plates were then incubated for 30 min at room temperature on the shaker. Wells with no compound served as a positive “no competitor” control, while wells with no IL17R/Fc and no compound served as a blank negative control. After an additional PBST wash, 50 ng/mL HRP-conjugated goat anti-human Fc IgG (KPL #04-10-20) was added to the plate for 30 min at room temperature, followed by PBST wash and addition of SureBlue™ TMB (KPL #52-00-03). After the sufficient color development, the reaction was fixed by the addition of 100 μL/well 0.5 N HCl and absorbance was measured at 450 nm on Biotek plate reader.
Data were processed using BioAssay Enterprise v10.1.4 (CambridgeSoft) software. Linear OD λ450 were plotted against log concentration (x) and fitted to a 4-parameter logistic equation. IC50 was calculated using positive ‘no competitor’ control data as an upper limit and blank control as a lower limit in each assay.

Compound	IC50 [1] [nM]	IC50 [2] [nM]
C[C@H]1NC(=O)[C@@H](Cc2ccc(NC(=O)[C@@H](NC(=O)Cc3ccc(CO)cc3)C3CCCCC3)cc2)NC(=O)CC2(CCCC2)CC(=O)NCCCCCNC1=O [Compound 360]	< 100	100 to 1000
O=C1CC2(CCCC2)CC(=O)N[C@H](Cc2ccc(NC(=O)[C@H](Cc3ccccc3Cl)NC(=O)Cc3ccccc3)cc2)C(=O)NCCCCCCN1 [Compound 345]	< 100	100 to 1000
O=C1CNC(=O)[C@@H](Cc2ccc(NC(=O)[C@@H](NC(=O)c3cccc(F)c3)C3CCCCC3)cc2)NC(=O)CC2(CCCC2)CC(=O)NCCCCCN1 [Compound 382]	< 100	100 to 1000
CC(=O)N[C@H](C(=O)Nc1ccc(C[C@H]2NC(=O)CC3(CCCC3)CC(=O)NCCCCCNC(=O)CNC2=O)cc1)C1CCCCC1 [Compound 377]	100 to 1000	< 100
O=C1CNC(=O)[C@@H](Cc2ccc(NC(=O)[C@@H](NC(=O)c3ccccc3)C3CCCCC3)cc2)NC(=O)CC2(CCCC2)CC(=O)NCCCCCN1 [Compound 379]	< 100	1000 to 10000
O=C1CC2(CCCC2)CC(=O)N[C@H](Cc2ccc(NC(=O)[C@@H](NC(=O)Cc3ccccc3)C3CCCCC3)cc2)C(=O)NCCCCCCN1 [Compound 346]	< 100	1000 to 10000
COC(=O)[C@@H]1CCCCNC(=O)CC2(CCCC2)CC(=O)N[C@H](Cc2ccc(NC(=O)[C@H](Cc3ccccc3Cl)NC(=O)Cc3ccccc3)cc2)C(=O)NCC(=O)N1 [Compound 285]	–	< 100
C[C@@H](O)[C@@H]1NC(=O)[C@@H](Cc2ccc(NC(=O)[C@H](Cc3ccccc3Cl)NC(=O)Cc3ccccc3)cc2)NC(=O)CC2(CCCC2)CC(=O)NCCCCCNC1=O [Compound 321]	–	100 to 1000
CC(=O)N[C@@H](Cc1cccs1)C(=O)Nc1ccc(C[C@H]2NC(=O)CC(C)(C)CC(=O)NCCCCCNC(=O)CNC2=O)cc1 [Compound 256]	–	> 10000
CN(C)CC(=O)N[C@@H](Cc1ccccc1Cl)C(=O)Nc1ccc(C[C@H]2NC(=O)CC3(CCCC3)CC(=O)NCCCCCNC(=O)CNC2=O)cc1 [Compound 303]	–	100 to 1000
C=CCOC(=O)N1CCNC(=O)CNC(=O)[C@@H](Cc2ccc(NC(=O)[C@H](Cc3ccccc3Cl)NC(=O)Cc3ccccc3)cc2)NC(=O)CC2(CCCC2)CC(=O)NCC1 [Compound 284]	–	100 to 1000
CN1CCNC(=O)CNC(=O)[C@@H](Cc2ccc(NC(=O)[C@H](Cc3ccccc3Cl)NC(=O)Cc3ccccc3)cc2)NC(=O)CC2(CCCC2)CC(=O)NCC1 [Compound 323]	–	100 to 1000
CC1(C)CC(=O)NCCCCCNC(=O)CNC(=O)[C@@H](Cc2ccc(NC(=O)[C@H](Cc3cccs3)NC(=O)Cc3ccc(O)cc3)cc2)NC(=O)C1 [Compound 257]	–	100 to 1000
O=C1CNC(=O)[C@@H](Cc2ccc(NC(=O)[C@H](Cc3ccccc3Cl)NC(=O)c3ccc(F)c(F)c3)cc2)NC(=O)CC2(CCCC2)CC(=O)NCCCCCN1 [Compound 297]	–	< 100
O=C1CNC(=O)[C@@H](Cc2ccc(NC(=O)[C@H](Cc3ccccc3Cl)NC(=O)Cc3ccc(O)cc3)cc2)NC(=O)CC2(CCCC2)CC(=O)NCCCCCN1 [Compound 279]	–	< 100
O=C1CNC(=O)[C@@H](Cc2ccc(NC(=O)[C@H](Cc3ccccc3Cl)NC(=O)Cc3ccccc3)cc2)NC(=O)CC2(CCCC2)CC(=O)NCCCCCOC(=O)CN1 [Compound 322]	–	100 to 1000
COC(=O)[C@@H]1CCCCNC(=O)CNC(=O)[C@@H](Cc2ccc(NC(=O)[C@H](Cc3ccccc3Cl)NC(=O)c3cccnc3)cc2)NC(=O)CC2(CCCC2)CC(=O)N1 [Compound 250]	–	< 100
O=C1CNC(=O)[C@@H](Cc2ccc(NC(=O)[C@H](Cc3ccccc3Cl)NS(=O)(=O)Cc3ccccc3)cc2)NC(=O)CC2(CCCC2)CC(=O)NCCCCCN1 [Compound 272]	–	100 to 1000
O=C1CC2(CCCC2)CC(=O)N[C@H](Cc2ccc(NC(=O)[C@H](Cc3ccccc3Cl)NC(=O)Cc3ccccc3)cc2)C(=O)NCC(=O)OCCCCCN1 [Compound 318]	–	100 to 1000
O=C1CNC(=O)[C@@H](Cc2ccc(NC(=O)[C@H](Cc3ccccc3Cl)NC(=O)c3ccc(CO)cc3)cc2)NC(=O)CC2(CCCC2)CC(=O)NCCCCCN1 [Compound 219]	–	100 to 1000
CN(C(=O)Cc1ccccc1)[C@@H](Cc1ccccc1)C(=O)Nc1ccc(C[C@H]2NC(=O)CC3(CCCC3)CC(=O)NCCCCCNC(=O)CNC2=O)cc1 [Compound 238]	–	1000 to 10000
CC(=O)N[C@H](C(=O)Nc1ccc(C[C@H]2NC(=O)CC(C)(C)CC(=O)NCCCCCNC(=O)CNC2=O)cc1)C1CCCCC1 [Compound 252]	–	1000 to 10000
O=C1CNC(=O)[C@@H](Cc2ccc(NC(=O)[C@H](Cc3ccccc3Cl)NC(=O)Cc3ccc(O)cc3)cc2)NC(=O)CC2(CCCC2)CC(=O)N[C@H](C(=O)O)CCCCN1 [Compound 265]	–	< 100
O=C1CNC(=O)C(Cc2ccc(NC(=O)C(Cc3cccc(Cl)c3)NC(=O)Cc3ccccc3)cc2)NC(=O)CC2(CCCC2)CC(=O)NCCCCCN1 (stereo not shown) [Compound 239]	–	< 100
O=C1CCCCCNC(=O)CNC(=O)[C@@H](Cc2ccc(NC(=O)[C@H](Cc3ccccc3Cl)NC(=O)Cc3ccccc3)cc2)NC(=O)CC2(CCCCC2)CN1 [Compound 286]	–	100 to 1000
CN1CCCCCNC(=O)CC2(CCCC2)CC(=O)N[C@H](Cc2ccc(NC(=O)[C@H](Cc3ccccc3Cl)NC(=O)c3ccc(F)cc3)cc2)C(=O)NCC1=O [Compound 308]	–	100 to 1000

The next lines start with the values.

IC50 [1] [nM]	IC50 [2] [nM]	Compound
< 100	100 to 1000	CC(C)[C@H](NC(=O)Cc1ccccc1)C(=O)Nc1ccc(C[C@H]2NC(=O)CC3(CCCC3)CC(=O)NCCCCCNC(=O)CNC2=O)cc1 [Compound 313]
< 100	< 100	O=C1CNC(=O)[C@@H](Cc2ccc(NC(=O)[C@H](Cc3ccccc3Cl)NC(=O)Cc3c(F)cc(F)cc3F)cc2)NC(=O)CC2(CCCC2)CC(=O)NCCCCCN1 [Compound 325]
< 100	100 to 1000	O=C1CC2(CCCC2)CC(=O)N[C@H](Cc2ccc(NC(=O)[C@H](Cc3ccccc3Cl)NC(=O)Cc3ccccc3)cc2)C(=O)NCCOCCOCCN1 [Compound 292]
100 to 1000	1000 to 10000	O=C1CC2(CCCC2)CC(=O)N[C@H](Cc2ccc(NC(=O)[C@@H](NC(=O)Cc3ccc(CO)cc3)C3CCCCC3)cc2)C(=O)NCCOCCOCCN1 [Compound 344]
< 100	1000 to 10000	O=C1CC2(CCCC2)CC(=O)N[C@H](Cc2ccc(NC(=O)[C@@H](NC(=O)Cc3ccc(CO)cc3)C3CCCCC3)cc2)C(=O)NCCCCCCN1 [Compound 355]
< 100	100 to 1000	O=C1CC2(CCCC2)CC(=O)N[C@H](Cc2ccc(NC(=O)[C@H](Cc3ccccc3Cl)NC(=O)Cc3ccccc3)cc2)C(=O)NCCCCCCCN1 [Compound 347]
< 100	100 to 1000	O=C1CNC(=O)[C@@H](Cc2ccc(NC(=O)[C@@H](NC(=O)Cc3ccc(CO)cc3)C3CCCCC3)cc2)NC(=O)CC2(CCCC2)CC(=O)NCCCCCN1 [Compound 375]
< 100	100 to 1000	C[C@H]1NC(=O)[C@@H](Cc2ccc(NC(=O)[C@@H](NC(=O)c3cccnc3)C3CCCCC3)cc2)NC(=O)CC2(CCCC2)CC(=O)N[C@H](C(=O)O)CCCCNC1=O [Compound 370]
< 100	100 to 1000	O=C1CC2(CCCC2)CC(=O)N[C@H](Cc2ccc(NC(=O)[C@H](Cc3ccccc3Cl)NC(=O)Cc3ccc(CO)cc3)cc2)C(=O)NCCCCCCCCCN1 [Compound 358]
–	100 to 1000	O=C1CNC(=O)[C@@H](Cc2ccc(NC(=O)[C@H](Cc3ccccc3Cl)NC(=O)CC3CCOCC3)cc2)NC(=O)CC2(CCCC2)CC(=O)NCCCCCN1 [Compound 275]
–	1000 to 10000	O=C1CNC(=O)[C@@H](Cc2ccc(NC(=O)[C@H](Cc3ccccc3Cl)NC(=O)c3ccc(C(=O)O)cc3)cc2)NC(=O)CC2(CCCC2)CC(=O)NCCCCCN1 [Compound 299]
–	100 to 1000	O=C1CNC(=O)[C@@H](Cc2ccc(NC(=O)[C@H](Cc3ccccc3Cl)NC(=O)c3ccccc3O)cc2)NC(=O)CC2(CCCC2)CC(=O)NCCCCCN1 [Compound 330]
–	100 to 1000	O=C1CNC(=O)[C@@H](Cc2ccc(NC(=O)[C@H](Cc3ccccc3Cl)NC(=O)C3CCOCC3)cc2)NC(=O)CC2(CCCC2)CC(=O)NCCCCCN1 [Compound 220]
–	100 to 1000	CN1CCCCCNC(=O)CNC(=O)[C@@H](Cc2ccc(NC(=O)[C@@H](NC(=O)Cc3ccc(CO)cc3)C3CCCCC3)cc2)NC(=O)CC2(CCCC2)CC1=O [Compound 343]
